In patent publication US20110281369A1 (Board of Governors for Higher Education, State of Rhode …, priority 2006, published 2011):
Where “and” joins values, the source holds several entries; their conditions need not be identical. Equal entries are not always repeated.

What was measured:
[1] = MPA concentration in saliva of kidney transplant recipients by LC-MS/MS; assay type: in vivo, human
Description: Indomethacin (INDO, Alfa Aesar) was used as the internal standard. All reagents and solvents were high performance liquid chromatography (HPLC) grade. […] Calibrators and Quality Control standards (QCs) were prepared using pooled unstimulated whole saliva collected from at least six healthy volunteers (IRB Approval#HU0203-120). […] All calibrators and QCs were aliquoted into 2 mL cryovials and maintained at −20° C. until use.
Extraction of MPA from saliva was carried out by protein precipitation. Calibrators, QC's or patient samples were thawed in a shaking water bath at 37° C. for 5 min. The samples were then sonicated for 10 seconds and 100 μL was pipetted into a microcentrifuge tube, followed by the subsequent additions 50 μL methanol containing INDO (500 μg/L) and […] acetonitrile. The tubes were vortex mixed for 90 seconds and centrifuged at 16,000 g for 5 min. The supernatants were carefully aspirated into glass culture tubes and dried at 50° C. in a centrifugal evaporator (Thermosavant Holbrook, N.Y.) after which they were reconstituted with 100 μL of 85:15% v/v of methanol and 0.05% formic acid in de-ionized water and a 20 μL aliquot was injected onto the column.
Analytical column was Zorbax Rx C8 (150 mm×4.6 mm, 5 μm) from Agilent Technologies (Palo Alto, Calif.) and mobile phase was a gradient mixture of methanol and deionized water containing 0.05% formic acid. […] For this, a combined mixture of the analytes (1 mg/L each) in mobile phase was infused continuously onto the mass spectrometer and the residues extracted from blank saliva were injected simultaneously via a three way T-valve. In accordance with further embodiments, the ionization technique may involve any of photoionization, electrospray ionization, atmospheric pressure chemical ionization, electron capture ionization or selective ion monitoring, and may be performed in positive mode or negative mode.
(§1) Patients were receiving 1000-2000 mg/day mycophenolate mofetil (Cellcept® Roche Laboratories). Unstimulated saliva samples were collected by passive drool into a plastic cup within a 5-min period of blood collection and stored at −80° C. until analysis. The patients remained fasted for the first 2 hours of sampling but then were allowed standard hospital meals.
(§2) Given the fact that the possibility of blood leakage in saliva is high at morning trough (FIG. 3), have collected 144 additional saliva samples obtained during another pharmacokinetic study. Therefore the data represented in the next section were obtained from 29 kidney transplant recipients throughout a 12-hour dosing interval.

[2] = Total and unbound MPA and metabolite concentrations in plasma of kidney transplant recipients (HPLC-UV; ultrafiltration followed by LC-MS/MS); assay type: in vivo, human; details: 29 kidney transplant recipients
Description: as §1, §2

[3] = Stock solution stability of methanolic stock solutions at room temperature; assay type: physicochemical; details: 8 hours, against freshly prepared samples
[4] = Stability of MPA in saliva based quality control standards (freeze-thaw, short term, autosampler); assay type: physicochemical; details: for Short term stability: bench top 5 hours at room temperature; for Short term stability / Freeze-thaw stability / Autosampler stability: n=3, mean ± SD, in % (unit assumed); for Freeze-thaw stability: three cycles of freezing at −20° C. and thawing at room temperature; for Autosampler stability: dried and reconstituted extracts 14-hours in autosampler
Description: The lower limit of quantification (LLOQ) and limit of detection (LOD) were defined at a signal to noise ratio of 5:1 and 3:1, respectively. The recovery of the extraction procedure was done by comparing the peak areas obtained from an extracted saliva based standard of MIPA or INDO with the peak areas of these analytes in methanol. To evaluate intraday coefficient of variation (CV %) of the assay, QCs were analyzed six times on the same day. Interday CV % and accuracy was evaluated by measuring the QC concentrations over 10 days using a separate calibration curve for each set. […] For short term stability studies, samples were kept on the bench top for 5 hours at room temperature and for freeze-thaw stability studies, samples were subjected to three cycles of freezing at −20° C. and thawing unassisted at room temperature. To evaluate autosampler stability, dried and reconstituted extracts were kept in the autosampler for 14-hours and then analyzed.

[5] = cited from earlier work
[6] = 29 kidney transplant recipients, N=243
[7] = 29 kidney transplant recipients, N=246

COc1c(C)c2c(c(O)c1C/C=C(\C)CCC(=O)O[C@@H]1O[C@H](C(=O)O)[C@@H](O)[C@H](O)[C@H]1O)C(=O)OC2 [AcMPAG, Acyl-MPAG]
Presence of AcMPAG peak in patient saliva ([1]; saliva of kidney transplant recipients, LC-MS/MS chromatogram): no AcMPAG peak was observed | AcMPAG conc, Mean ± SD ([2]; plasma, N=244): 1.8 ± 1.4 mg/L | AcMPAG conc, Median ([2]; plasma, N=244): 1.5 mg/L | AcMPAG conc, Min-Max ([2]; plasma, N=244): 0.4 to 8.5 mg/L

COc1ccc2c(c1)c(CC(=O)O)c(C)n2C(=O)c1ccc(Cl)cc1 [INDO, Indomethacin]
Loss of analyte at room temperature from methanolic stock solution [3]: 10%

COc1c(C)c2c(c(O)c1C/C=C(\C)CCC(=O)O)C(=O)OC2 [MPA, Mycophenolic acid]
Salivary concentration of MPA before administration of Cellcept morning dose (morning trough) ([1]; 11 kidney transplant recipients, morning trough): 79.8 ± 63.7 µg/L | Saliva concentration of MPA, range ([1]; 11 kidney transplant recipients, n=100 samples, 12-hour dosing interval): 2.6 to 2204 µg/L and 2.6 to 220.4 µg/L | Saliva concentration of MPA, Mean±SD ([1]; 11 kidney transplant recipients, n=100 samples, 12-hour dosing interval, 1000-2000 mg/day mycophenolate mofetil): 31.4 ± 32.3 µg/L | Average deviation between saliva and unbound plasma concentrations ([1]; 29 kidney transplant recipients, 244 saliva samples): 0.49 ng/mL | Deviation between saliva and unbound conc, Mean ± SD (average deviation) [1, 6]: 0.49 µg/L and 0.49 ± 44.25 µg/L | Deviation between saliva and unbound conc, Median [1, 6]: 1.89 µg/L | Deviation between saliva and unbound conc, Min-Max [1, 6]: -208.10 to 264.54 µg/L | Saliva MPA conc, Mean ± SD [1, 7]: 28.3 ± 32.3 µg/L | Saliva MPA conc, Median [1, 7]: 18.1 µg/L | Saliva MPA conc, Min-Max [1, 7]: 1.4 to 283.9 µg/L | Saliva MPA compared with unbound plasma concentration ([1]; two hours post dose, absorption phase): considerably lower | Unbound MPA conc, Mean ± SD ([2]; plasma ultrafiltrate, N=243): 27.9 ± 36.6 µg/L | Unbound MPA conc, Median ([2]; plasma ultrafiltrate, N=243): 14.5 µg/L | Unbound MPA conc, Min-Max ([2]; plasma ultrafiltrate, N=243): 1.8 to 267.0 µg/L | Total MPA conc, Median ([2]; plasma, N=244): 2.3 mg/L | Total MPA conc, Min-Max ([2]; plasma, N=244): 0.3 to 38.5 mg/L | Total MPA conc, Mean ± SD ([2]; plasma, N=244, 12-hour dosing interval): 3.7 ± 4.7 mg/L | Short term stability ([4]; 10 μg/L MPA in saliva): 106.0 ± 3.6 | Freeze-thaw stability ([4]; 10 μg/L MPA in saliva): 103.6 ± 7.1 | Autosampler stability ([4]; 10 μg/L MPA): 95.0 ± 6.6 | Short term stability ([4]; 600 μg/L MPA in saliva): 98.7 ± 2.7 | Freeze-thaw stability ([4]; 600 μg/L MPA in saliva): 98.9 ± 1.1 | Autosampler stability ([4]; 600 μg/L MPA): 98.2 ± 0.6 | Stability in saliva based standards (in words) ([4]; under the experimental condition described): stable | Loss of analyte at room temperature from methanolic stock solution [3]: 0.6% | pKa [5]: 4.5

COc1c(C)c2c(c(O[C@@H]3O[C@H](C(=O)O)[C@@H](O)[C@H](O)[C@H]3O)c1C/C=C(\C)CCC(=O)O)C(=O)OC2 [MPAG, MPA-glucuronide]
MPAG conc, Mean ± SD ([2]; plasma, N=244): 51.8 ± 31.6 mg/L | MPAG conc, Median ([2]; plasma, N=244): 43.8 mg/L | MPAG conc, Min-Max ([2]; plasma, N=244): 10.6 to 180.5 mg/L
